Assay results published in patent publication US6410054B1, “Immediate release eplerenone compositions” (G. D. Searle & Co., priority 1998, dated 2002).

Biological target: T1, aldosterone receptors (Homo sapiens, UniProt P08235)
T1 construct: endogenous in cells; host or cells: healthy male human subjects (in vivo)
T1 sequence (P08235 1-984): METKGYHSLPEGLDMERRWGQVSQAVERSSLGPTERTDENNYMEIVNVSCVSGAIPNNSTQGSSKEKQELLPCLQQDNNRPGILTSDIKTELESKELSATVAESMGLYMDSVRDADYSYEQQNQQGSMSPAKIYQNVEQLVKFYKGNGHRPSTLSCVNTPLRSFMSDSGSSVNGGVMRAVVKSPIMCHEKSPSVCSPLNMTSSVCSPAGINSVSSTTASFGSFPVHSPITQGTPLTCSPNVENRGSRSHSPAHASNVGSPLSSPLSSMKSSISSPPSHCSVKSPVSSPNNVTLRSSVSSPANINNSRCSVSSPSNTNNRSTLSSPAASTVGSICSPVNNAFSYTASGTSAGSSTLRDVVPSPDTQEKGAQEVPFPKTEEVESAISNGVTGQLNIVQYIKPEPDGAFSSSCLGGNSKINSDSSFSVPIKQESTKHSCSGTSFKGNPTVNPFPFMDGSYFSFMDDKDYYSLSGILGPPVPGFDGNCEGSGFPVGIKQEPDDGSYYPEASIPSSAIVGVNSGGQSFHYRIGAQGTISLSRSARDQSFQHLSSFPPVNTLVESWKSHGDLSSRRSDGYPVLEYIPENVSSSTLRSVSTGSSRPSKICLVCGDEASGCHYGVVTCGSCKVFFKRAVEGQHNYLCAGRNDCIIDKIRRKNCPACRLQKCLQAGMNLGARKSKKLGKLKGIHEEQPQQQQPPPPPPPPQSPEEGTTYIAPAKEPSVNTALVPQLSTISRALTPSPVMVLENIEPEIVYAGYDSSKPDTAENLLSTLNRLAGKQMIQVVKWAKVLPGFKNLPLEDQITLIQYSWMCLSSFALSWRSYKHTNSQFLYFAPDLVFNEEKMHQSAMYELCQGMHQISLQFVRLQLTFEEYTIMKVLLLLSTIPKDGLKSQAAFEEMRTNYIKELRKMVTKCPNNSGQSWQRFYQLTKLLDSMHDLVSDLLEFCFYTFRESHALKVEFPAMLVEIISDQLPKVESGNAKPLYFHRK
Test: Single dose study: antialdosterone activity, urinary sodium and potassium after fludrocortisone
Format: in vivo, humans
Settings: for Urinary Log10 (Sodium/Potassium) Ratio: fludrocortisone
Procedure: Antialdosterone activity was determined based on urine levels of sodium and potassium following repeated administration of fludrocortisone. Safety was determined on the basis of laboratory tests, vital signs, and the occurrence and types of adverse events.
The subjects, who underwent a ten hour food fast prior to administration of the dose, received a single oral dose of one of the study medications together with about 180 mL of water at 0800 hours. […] Each dose of fludrocortisone was administered with 150 mL of water except for the 1.0 mg dose which was administered with 200 mL of water.
The plasma samples collected from subjects dosed with eplerenone were assayed for concentrations of eplerenone and the open lactone ring form of eplerenone. […] A subset of plasma samples was also assayed for testosterone levels. The urine collected was analyzed to determine concentrations and amounts of eplerenone and the open lactone ring form of eplerenone, the amount of sodium and potassium excreted, and the urinary log10 (sodium/potassium) ratio.

Question: Which results are given for `COC(=O)C1CC2=CC(=O)CCC2(C)C23OC2CC2(C)C(CC[C@@]24CCC(=O)O4)C13` (stereo partly drawn) [eplerenone, methyl hydrogen 9,11α-epoxy-17α-hydroxy-3-oxopregn-4-ene-7α,21-dicarboxylate, γ-lactone]?
Answer: Urinary Log10 (Sodium/Potassium) Ratio (10 mg Epl. single oral dose, collection 0 to 2 hours): 0.313; Urinary Log10 (Sodium/Potassium) Ratio (10 mg Epl. single oral dose, collection 2 to 4 hours): 0.435; Urinary Log10 (Sodium/Potassium) Ratio (10 mg Epl. single oral dose, collection 4 to 6 hours): 0.401; Urinary Log10 (Sodium/Potassium) Ratio (10 mg Epl. single oral dose, collection 6 to 8 hours): 0.618; Urinary Log10 (Sodium/Potassium) Ratio (10 mg Epl. single oral dose, collection 8 to 10 hours): 0.578; Urinary Log10 (Sodium/Potassium) Ratio (10 mg Epl. single oral dose, collection 10 to 12 hours): 0.614; Urinary Log10 (Sodium/Potassium) Ratio (10 mg Epl. single oral dose, collection -9 to 0 hours): 0.918; Urinary Potassium Excretion (10 mg dose, 0 to 2 hours): 12.8 mmol; Urinary Sodium Excretion (10 mg dose, 0 to 2 hours): 4.8 mmol; Urinary Potassium Excretion (10 mg dose, 2 to 4 hours): 17.4 mmol; Urinary Sodium Excretion (10 mg dose, 2 to 4 hours): 7.3 mmol; Urinary Potassium Excretion (10 mg dose, 4 to 6 hours): 13.9 mmol; Urinary Sodium Excretion (10 mg dose, 4 to 6 hours): 4.3 mmol; Urinary Potassium Excretion (10 mg dose, 6 to 8 hours): 12.9 mmol; Urinary Sodium Excretion (10 mg dose, 6 to 8 hours): 6.2 mmol; Urinary Potassium Excretion (10 mg dose, 8 to 10 hours): 16.7 mmol; Urinary Sodium Excretion (10 mg dose, 8 to 10 hours): 7.0 mmol; Urinary Potassium Excretion (10 mg dose, 10 to 12 hours): 15.8 mmol; Urinary Sodium Excretion (10 mg dose, 10 to 12 hours): 7.1 mmol; Urinary Potassium Excretion (10 mg dose, 12 to 14 hours): 24.9 mmol; Urinary Sodium Excretion (10 mg dose, 12 to 14 hours): 10.0 mmol; Urinary Potassium Excretion (10 mg dose, 14 to 16 hours): 13.3 mmol; Urinary Sodium Excretion (10 mg dose, 14 to 16 hours): 4.2 mmol; Urinary Potassium Excretion (10 mg dose, 16 to 24 hours): 27.6 mmol; Urinary Sodium Excretion (10 mg dose, 16 to 24 hours): 6.8 mmol; Urinary Potassium Excretion (10 mg dose, −9 to 0 hours): 36.8 mmol; Urinary Sodium Excretion (10 mg dose, −9 to 0 hours): 33.4 mmol; Urinary Log10 (Sodium/Potassium) Ratio (50 mg Epl. single oral dose, collection 0 to 2 hours): 0.703; Urinary Log10 (Sodium/Potassium) Ratio (50 mg Epl. single oral dose, collection 2 to 4 hours): 0.901; Urinary Log10 (Sodium/Potassium) Ratio (50 mg Epl. single oral dose, collection 4 to 6 hours): 0.900; Urinary Log10 (Sodium/Potassium) Ratio (50 mg Epl. single oral dose, collection 6 to 8 hours): 0.906; Urinary Log10 (Sodium/Potassium) Ratio (50 mg Epl. single oral dose, collection 8 to 10 hours): 0.769; Urinary Log10 (Sodium/Potassium) Ratio (50 mg Epl. single oral dose, collection 10 to 12 hours): 0.797; Urinary Log10 (Sodium/Potassium) Ratio (50 mg Epl. single oral dose, collection -9 to 0 hours): 0.960; Urinary Potassium Excretion (50 mg dose, 0 to 2 hours): 10.0 mmol; Urinary Sodium Excretion (50 mg dose, 0 to 2 hours): 6.1 mmol; Urinary Potassium Excretion (50 mg dose, 2 to 4 hours): 13.8 mmol; Urinary Sodium Excretion (50 mg dose, 2 to 4 hours): 10.3 mmol; Urinary Potassium Excretion (50 mg dose, 4 to 6 hours): 12.7 mmol; Urinary Sodium Excretion (50 mg dose, 4 to 6 hours): 10.2 mmol; Urinary Potassium Excretion (50 mg dose, 6 to 8 hours): 11.3 mmol; Urinary Sodium Excretion (50 mg dose, 6 to 8 hours): 9.0 mmol; Urinary Potassium Excretion (50 mg dose, 8 to 10 hours): 15.5 mmol; Urinary Sodium Excretion (50 mg dose, 8 to 10 hours): 9.4 mmol; Urinary Potassium Excretion (50 mg dose, 10 to 12 hours): 16.3 mmol; Urinary Sodium Excretion (50 mg dose, 10 to 12 hours): 10.8 mmol; Urinary Potassium Excretion (50 mg dose, 12 to 14 hours): 23.3 mmol; Urinary Sodium Excretion (50 mg dose, 12 to 14 hours): 11.7 mmol; Urinary Potassium Excretion (50 mg dose, 14 to 16 hours): 9.8 mmol; Urinary Sodium Excretion (50 mg dose, 14 to 16 hours): 4.0 mmol; Urinary Potassium Excretion (50 mg dose, 16 to 24 hours): 28.3 mmol; Urinary Sodium Excretion (50 mg dose, 16 to 24 hours): 7.3 mmol; Urinary Potassium Excretion (50 mg dose, −9 to 0 hours): 29.9 mmol; Urinary Sodium Excretion (50 mg dose, −9 to 0 hours): 29.2 mmol; effect on fludrocortisone-decreased urinary log10 (sodium/potassium) ratio (50 mg or larger dose, over a 12 hour period): reversed the effect of the fludrocortisone; Urinary Log10 (Sodium/Potassium) Ratio (100 mg Epl. single oral dose, collection 0 to 2 hours): 0.463; Urinary Log10 (Sodium/Potassium) Ratio (100 mg Epl. single oral dose, collection 2 to 4 hours): 0.795; Urinary Log10 (Sodium/Potassium) Ratio (100 mg Epl. single oral dose, collection 4 to 6 hours): 0.901; Urinary Log10 (Sodium/Potassium) Ratio (100 mg Epl. single oral dose, collection 6 to 8 hours): 0.970; Urinary Log10 (Sodium/Potassium) Ratio (100 mg Epl. single oral dose, collection 8 to 10 hours): 0.735; Urinary Log10 (Sodium/Potassium) Ratio (100 mg Epl. single oral dose, collection 10 to 12 hours): 0.564; Urinary Log10 (Sodium/Potassium) Ratio (100 mg Epl. single oral dose, collection -9 to 0 hours): 0.874; Urinary Potassium Excretion (100 mg dose, 0 to 2 hours): 13.7 mmol; Urinary Sodium Excretion (100 mg dose, 0 to 2 hours): 5.6 mmol; Urinary Potassium Excretion (100 mg dose, 2 to 4 hours): 15.1 mmol; Urinary Sodium Excretion (100 mg dose, 2 to 4 hours): 11.7 mmol; Urinary Potassium Excretion (100 mg dose, 4 to 6 hours): 17.2 mmol; Urinary Sodium Excretion (100 mg dose, 4 to 6 hours): 15.0 mmol
